Data as given in article PMC10363080, “Modulatory Effect of Pyrus pyrifolia Fruit and its Phenolics on Key Enzymes against Metabolic Syndrome: Bioassay-Guided Approach, HPLC Analysis, and In Silico Study” (Plant Foods for Human Nutrition (Dordrecht, Netherlands), 2023).

How the values were obtained:
[1] = target: T1, Recombinant renin (Homo sapiens, UniProt P00797); assay: Renin inhibitory activity (renin-inhibitor screening assay kit); type: biochemical; details: isolated compounds, Table S7; read-out: Inhibition (IC50) Renin (converted)
T1 construct: purchased BPS Bioscince
T1 sequence (P00797 67-406): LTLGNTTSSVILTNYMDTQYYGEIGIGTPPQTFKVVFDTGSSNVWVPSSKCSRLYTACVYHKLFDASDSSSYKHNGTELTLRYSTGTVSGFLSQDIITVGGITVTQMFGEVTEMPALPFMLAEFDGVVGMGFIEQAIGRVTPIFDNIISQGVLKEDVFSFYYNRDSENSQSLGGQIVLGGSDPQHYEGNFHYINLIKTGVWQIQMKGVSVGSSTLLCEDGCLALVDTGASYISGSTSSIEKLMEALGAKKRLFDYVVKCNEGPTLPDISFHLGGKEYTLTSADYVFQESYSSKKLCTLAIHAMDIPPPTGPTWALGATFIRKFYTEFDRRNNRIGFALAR
Protocol: all of analytical grade. […]
(§1) Phenolic acids and flavonoids used in HPLC analysis as well as all other reagents for biological investigations were obtained from Sigma Chemical Company […]
(§2) Inhibitory activity against key enzymes related to metabolic syndrome (MS) All assays were performed in 96-well plates. Stock solutions of the extract (100 mg/mL), fractions (100 mg/mL), and isolated compounds (1000 µM) were prepared. Tested samples that exceeded […]
(§3) inhibitory concentration (IC50). The percentage of enzyme inhibition was calculated according to […]
(§4) % Inhibition = (A−B) − (C−D) x 100 […]
Renin inhibitory activity
The renin inhibitory activity was examined according to a previously described method using renin-inhibitor screening assay kit (BPS Bioscince, San Diego, CA, USA) and quinapril as a reference drug. Recombinant renin enzyme (50 μL) was dissolved in 50-mM Tris-HCl buffer (pH 8.0) and 100-mM NaCl (assay buffer) and stored at –80°C for further analysis. Twenty μL of renin substrate (A500 μM in DMSO), 150 μL of assay buffer, and 10 μL of each sample were used to prepare test solutions (10mg/ml in methanol). The blank samples were made using 10 μL of the sample, 20 μL of the substrate, and 160 μL of assay buffer. The positive control samples were created using 10 μL of methanol, 20 μL of substrate, and 150 μL of assay buffer. The positive control and tested samples were combined with 10 μL of the renin solution for the assay in order to catalyze the reaction. After that, the reaction mixture was incubated for 45 minutes at 37 °C.
The fluorescence generated at the 340 nm excitation and 490 nm emission wavelengths was measured using a microplate reader.
Xanthine oxidase (XO) inhibitory activity
Xanthine oxidase (XO) inhibitory potential was carried out according to a previous designed procedure using xanthine oxidase (XO, EC 1.17.3.2; Biovision, USA). Allopurinol was applied as a reference drug. Immediately prior to use, a mixture was made up of 50 μL of sample solution, 35 μL of phosphate buffer (70 mM, pH = 7.5), and 30 μL of new enzyme solution (0.01 units/mL in the same buffer). The reaction was started by adding 60 μL of the substrate solution (150 μM xanthine in the same buffer) following a pre-incubation at 25 °C for 15 minutes. After that, the mixture was incubated at 25 °C for 30 min. After adding 25 μL of 1 M HCl to terminate the reaction, the absorbance was measured at 290 nm with a microplate reader as previously

[2] = target: T2, inducible nitric oxide synthase (iNOS) (Mus musculus, UniProt P29477); assay: iNOS inhibitory activity in LPS-induced RAW264.7 macrophages (nitrite, Griess reagent); type: cell-based; details: isolated compounds, Table S7, RAW264.7 cells, read-out: Inhibition (IC50) iNOS (converted)
T2 construct: endogenous in cells; host or cells: RAW264.7 mouse macrophages, LPS-induced
T2 sequence (P29477 1-1144): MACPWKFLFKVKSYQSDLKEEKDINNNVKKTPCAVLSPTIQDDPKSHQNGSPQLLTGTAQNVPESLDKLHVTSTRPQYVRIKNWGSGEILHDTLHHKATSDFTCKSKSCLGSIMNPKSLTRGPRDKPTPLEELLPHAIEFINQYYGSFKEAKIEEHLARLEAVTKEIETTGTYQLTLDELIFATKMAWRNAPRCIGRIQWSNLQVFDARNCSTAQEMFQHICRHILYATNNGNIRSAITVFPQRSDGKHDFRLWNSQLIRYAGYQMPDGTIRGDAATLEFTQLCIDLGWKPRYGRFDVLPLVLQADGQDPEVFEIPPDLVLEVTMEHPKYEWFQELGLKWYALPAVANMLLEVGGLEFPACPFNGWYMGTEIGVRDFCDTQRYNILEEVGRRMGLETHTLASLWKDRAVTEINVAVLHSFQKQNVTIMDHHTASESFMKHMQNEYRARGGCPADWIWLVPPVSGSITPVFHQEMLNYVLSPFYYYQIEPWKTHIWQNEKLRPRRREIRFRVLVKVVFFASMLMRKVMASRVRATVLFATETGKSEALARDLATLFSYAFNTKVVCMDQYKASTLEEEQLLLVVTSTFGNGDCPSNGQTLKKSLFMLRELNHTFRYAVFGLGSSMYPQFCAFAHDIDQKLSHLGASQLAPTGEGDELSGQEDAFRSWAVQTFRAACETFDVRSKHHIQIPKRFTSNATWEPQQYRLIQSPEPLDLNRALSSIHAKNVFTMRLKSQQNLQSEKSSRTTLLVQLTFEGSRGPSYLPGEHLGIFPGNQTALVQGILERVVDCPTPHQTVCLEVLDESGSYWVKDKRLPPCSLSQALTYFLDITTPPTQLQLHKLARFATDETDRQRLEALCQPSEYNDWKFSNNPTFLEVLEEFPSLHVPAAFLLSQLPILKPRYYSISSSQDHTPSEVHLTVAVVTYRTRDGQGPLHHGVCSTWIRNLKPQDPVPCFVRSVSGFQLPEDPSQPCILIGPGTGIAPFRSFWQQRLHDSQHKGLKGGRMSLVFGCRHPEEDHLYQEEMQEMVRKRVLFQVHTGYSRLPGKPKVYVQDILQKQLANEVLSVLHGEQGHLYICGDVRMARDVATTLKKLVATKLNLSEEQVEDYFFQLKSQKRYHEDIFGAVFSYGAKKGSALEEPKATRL
Protocol: as §1, §2, §3, §4
Inducible nitric oxide synthase (iNOS) inhibitory activity iNOS inhibitory activity was determined in mouse macrophage cells (RAW264.7, Shanghai BOGO Industrial Co., Ltd., China) according to a previously designed method. Phenol red-free RPMI medium from Thermo-Fisher was used to develop macrophages. It was supplemented with 10% bovine calf serum, 100 U/mL of penicillin G sodium from Sigma-Aldrich, and 100 µg/mL of streptomycin (Sigma-Aldrich). Cells (50,000/well) were seeded onto 96-well plates, which were […]

SMILES	IC50 [1]	IC50 [2]
C[C@@H]1O[C@@H](OC[C@H]2O[C@@H](Oc3c(-c4ccc(O)c(O)c4)oc4cc(O)cc(O)c4c3=O)[C@H](O)[C@@H](O)[C@@H]2O)[C@H](O)[C@H](O)[C@H]1O [P1, rutin]	40.8 ± 1.3 µM	4.99 ± 1.94 µM
O=c1c(O[C@@H]2O[C@H](CO)[C@@H](O)[C@H](O)[C@H]2O)c(-c2ccc(O)c(O)c2)oc2cc(O)cc(O)c12 [P2, isoquercitrin]	24.8 ± 1.3 µM	4.8 ± 0.99 µM
COc1cc(-c2oc3cc(O)cc(O)c3c(=O)c2O[C@@H]2O[C@H](CO)[C@@H](O)[C@H](O)[C@H]2O)ccc1O [P3, isorhamnetin-3-O-β-D-glucopyranoside]	34.8 ± 0.79 µM	4.89 ± 0.78 µM
O=C(/C=C/c1ccc(O)c(O)c1)O[C@@H]1C[C@](O)(C(=O)O)C[C@@H](O)[C@H]1O [P4, chlorogenic acid]	47.8 ± 0.25 µM	4.79 ± 0.89 µM
O=C(O)/C=C/c1ccccc1 [P6, cinnamic acid]	20.7 ± 0.8 µM	4.76 ± 0.25 µM
